This assay deals with Orobanche ramosa L. Description: Germination inducer activity in Orobanche ramosa L. (germination rate of seeds). The class given is in vivo. Here is the method: In this Example, the germination inducer activity of Compound 1 on Orobanche ramosa L. was analyzed by measuring the germination rate. Orobanche ramosa L. is a parasitic plant of tomato, which is now classified as Phelipanche ramosa (L.) Pomel. The Orobanche ramosa L. used herein is a species that parasitizes tomatoes native to Portugal. Dried seeds of Orobanche ramosa L. were conditioned for one week in water from 20° C. to 26° C. in a dark and humid place. The compounds to be tested were each added in an amount of 2 mL to a Petri dish so as to give a final concentration of 1 μM or 100 nM (Compound 1), or 0.34 μM (GR24). After incubation from 20° C. to 26° C. in a dark and humid place for 1 week after the addition of the treatment solution, the germination rate was evaluated by counting the number of germinated seeds under a stereomicroscope.
In the table, “Germination” indicates the germination inducer activity of Compound 1. When the relative value of the germination rate was 4% or more, Compound 1 was marked with (+).

In the case of `COC(=O)[C@H](CCCCNC(=O)OC1C=C(C)C(=O)O1)NC(=O)OC(C)(C)C` (some centres unmarked) [Compound 1], the “germination inducer activity for Orobanche ramosa L.” value (1 μM or 100 nM) is on record as “exhibited germination inducer activity”. Further, the Germination result (Compound 1 at 1 μM or 100 nM, 20° C. to 26° C., dark, 1 week) is given as “+ (When the relative value of the germination rate was 4% or more, Compound 1 was marked with (+))”.

For the origin of these results see US20250031699A1, “Method for Controlling Parasitic Plants” (AJINOMOTO CO., INC., priority 2022, published 2025).
